# Earlier results as cited in PMC5845353, “The selective cathepsin K inhibitor MIV-711 attenuates joint pathology in experimental animal models of osteoarthritis” (Journal of Translational Medicine, 2018).
# Test system: HP-1
# Design: method as in PMID 22484689
# Conditions: ACLT rabbits; cited from earlier work
compound,measurement,value
CN1CCN(c2nc(-c3ccc(C(=O)NC4(C(=O)NCC#N)CCCCC4)cc3)cs2)CC1 [L-006235],reduction of HP-1 at dose sufficient for protection of bone loss,60%
